Read-outs that look alike come from different tables or passages of the source.
Legend:
[1] = molecular target: 17β-HSD1 (Homo sapiens (Human), UniProt P14061); experiment: 17β-HSD1 test assay (recombinant protein from Sf9 insect cells, 3H-estrone/NADPH); type: biochemical; settings: for inhibition at 1 µM: read-out: HSD 1 μM (% inhibition of HSD1); for inhibition at 0.1 µM: read-out: HSD1 100 nM (% inhibition)
How it was run: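 Sf9-expressed recombinant enzyme (0.1 μg/ml) with 30 nM 3H-estrone and 1 mM NADPH in 20 mM KH2PO4 pH 7.4, 30 min at RT; inhibitor at 1 μM or 100 nM, 1% DMSO final. Quenched with TCA; conversion measured by reversed-phase HPLC with flow scintillation detection.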

[2] = molecular target: 17β-HSD2 (Homo sapiens (Human), UniProt P37059); experiment: 17β-HSD2 test assay (recombinant protein from Sf9 insect cells, 3H-estradiol/NAD+); type: biochemical; settings: for inhibition at 0.1 µM: read-out: HSD2 100 nM (% inhibition); for inhibition at 1 µM: read-out: HSD2 1 μM (% inhibition)
Sequence of 17β-HSD2 (P37059 whole entry): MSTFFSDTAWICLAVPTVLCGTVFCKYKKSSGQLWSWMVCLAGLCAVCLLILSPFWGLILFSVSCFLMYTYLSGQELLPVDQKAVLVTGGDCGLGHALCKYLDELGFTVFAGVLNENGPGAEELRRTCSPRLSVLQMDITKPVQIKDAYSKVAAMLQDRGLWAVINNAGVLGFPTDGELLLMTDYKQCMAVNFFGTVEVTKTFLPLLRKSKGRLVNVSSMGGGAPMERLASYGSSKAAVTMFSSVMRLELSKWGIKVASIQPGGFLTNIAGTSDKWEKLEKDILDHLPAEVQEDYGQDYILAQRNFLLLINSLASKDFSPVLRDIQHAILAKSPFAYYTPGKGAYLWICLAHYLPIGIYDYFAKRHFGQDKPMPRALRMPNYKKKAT
Method: Recombinant protein obtained from Sf9 insect cells (0.1 μg/ml) is incubated with 20 mM KH2PO4, pH 7.4, 30 nM ^3H-estradiol and 1 mM NAD+ for 30 min at RT in the presence of the potential inhibitor in a concentration of 1 μM or 100 nM. The stock solutions of the compounds are prepared in DMSO so that the final concentration of DMSO in the sample is 1%. After the prescribed incubation time, the reaction is quenched by adding trichloroacetic acid (10% final concentration). The samples are centrifuged in microtitration plates at 400 rpm for 10 min, and the supernatants are charged on a reversed-phase HPLC equipped with a Waters Symmetrie C18 column and
Waters Sentry Guard column. The isocratic HPLC run is performed at RT with a flow rate of 1 ml/min and acetonitrile/water 48:52 as the eluent. The radioactivity was measured by means of a Packard Flow Scintillation Analyzer. The percent inhibition was calculated by means of the formulas stated above.

[3] = system: CaCo-2 cells; experiment: CaCo-2 assay (transport experiments); type: in vitro ADME
Method: (§1) Four reference compounds (atenolol, testosterone, ketoprofene and erythromycin) were employed in each assay for evaluating the transport properties of the CaCo-2 cells. The initial concentration of the compounds in the donor compartment was 50 μM (in buffer with 1% ethanol or DMSO). […] For glycoprotein P (P-gp) studies, bidirectional experiments were performed. The absorptive and secretory permeabilities (Papp(a-b) and Papp(b-a)) were determined. Thus, erythromycin was used as a substrate, and verapamil was used as an inhibitor of P-gp. Each experiment was performed in triplicate. The integrity of the monolayer was determined by means of TEER (transepithelial electric resistance) and the permeability for each assay was determined using Lucifer Yellow. All samples of the CaCo-2 transport experiments were analyzed by means of LC/MS/MS after dilution with buffer (1:1 with 2% acetic acid).

[4] = CaCo-2 assay (transport experiments); type: in vitro ADME; settings: human, Caco-2; initial donor concentration 50 μM
Method: as §1

[5] = molecular target: estrogen receptor β (Homo sapiens (Human), UniProt Q92731); experiment: Estrogen receptor binding assay, ERβ
Sequence of estrogen receptor β (Q92731 whole entry): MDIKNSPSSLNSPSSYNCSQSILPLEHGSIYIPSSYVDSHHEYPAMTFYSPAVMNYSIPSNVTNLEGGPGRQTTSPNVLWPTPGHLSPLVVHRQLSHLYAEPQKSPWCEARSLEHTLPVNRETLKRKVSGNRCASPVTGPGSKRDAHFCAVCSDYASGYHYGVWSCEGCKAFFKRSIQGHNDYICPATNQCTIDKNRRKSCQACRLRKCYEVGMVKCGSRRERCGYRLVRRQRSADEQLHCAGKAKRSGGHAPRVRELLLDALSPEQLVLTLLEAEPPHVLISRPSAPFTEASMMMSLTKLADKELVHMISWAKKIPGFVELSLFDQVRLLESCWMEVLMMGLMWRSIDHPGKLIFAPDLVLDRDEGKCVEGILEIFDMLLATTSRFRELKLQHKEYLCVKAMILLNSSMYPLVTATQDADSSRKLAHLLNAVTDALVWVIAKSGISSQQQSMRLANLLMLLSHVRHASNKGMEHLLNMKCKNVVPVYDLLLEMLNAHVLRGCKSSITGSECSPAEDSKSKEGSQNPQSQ

[6] = molecular target: estrogen receptor α (Homo sapiens (Human), UniProt P03372); experiment: Estrogen receptor binding assay, ERα
Sequence of estrogen receptor α (P03372 whole entry): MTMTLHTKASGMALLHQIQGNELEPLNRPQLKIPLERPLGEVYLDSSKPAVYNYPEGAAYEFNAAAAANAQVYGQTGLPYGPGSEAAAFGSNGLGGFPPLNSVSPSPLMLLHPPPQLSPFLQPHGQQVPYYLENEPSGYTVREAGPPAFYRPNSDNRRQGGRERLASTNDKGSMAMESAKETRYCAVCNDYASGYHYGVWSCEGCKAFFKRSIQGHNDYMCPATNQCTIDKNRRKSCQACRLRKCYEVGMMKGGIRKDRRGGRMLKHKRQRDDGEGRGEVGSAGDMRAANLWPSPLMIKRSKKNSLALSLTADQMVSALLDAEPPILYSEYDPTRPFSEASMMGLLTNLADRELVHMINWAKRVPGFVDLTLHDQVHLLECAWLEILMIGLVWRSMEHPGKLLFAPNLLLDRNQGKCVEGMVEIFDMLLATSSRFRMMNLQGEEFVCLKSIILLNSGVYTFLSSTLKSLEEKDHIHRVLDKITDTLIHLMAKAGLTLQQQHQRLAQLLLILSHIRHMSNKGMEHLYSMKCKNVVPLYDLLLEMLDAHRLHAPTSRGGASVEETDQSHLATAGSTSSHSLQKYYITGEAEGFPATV

[7] = In vivo pharmacokinetics (rat), cassette dosing method; settings: cassette dosing perorally 10 mg/kg, male Wistar rats; for AUC(0-t) / Tmax / AUC(0-inf): rat, plasma, po; for AUC(0-inf): extrapolated to ∞
Excerpt: Labrasol/water 1/1). The plasma profiles were established by means of LC-MS/MS.

[8] = relative binding affinity (estradiol: 100%)

Sequence of 17β-HSD1 (P14061 whole entry): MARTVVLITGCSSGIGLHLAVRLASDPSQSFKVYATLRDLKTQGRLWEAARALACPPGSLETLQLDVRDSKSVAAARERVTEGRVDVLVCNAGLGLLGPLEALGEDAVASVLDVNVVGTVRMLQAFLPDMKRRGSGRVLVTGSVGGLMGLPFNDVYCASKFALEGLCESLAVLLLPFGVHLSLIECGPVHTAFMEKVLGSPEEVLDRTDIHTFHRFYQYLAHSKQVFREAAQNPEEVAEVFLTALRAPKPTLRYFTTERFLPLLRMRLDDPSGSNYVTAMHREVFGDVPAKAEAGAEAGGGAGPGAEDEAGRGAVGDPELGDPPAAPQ

Row | SMILES | inhibition at 1 µM ([1]; inhibitor 1 μM) [%] | inhibition at 0.1 µM ([1]; inhibitor 100 nM) [%] | inhibition at 0.1 µM ([2]; inhibitor 100 nM) [%] | inhibition at 1 µM ([2]; inhibitor 1 μM) [%] | further results
1 | CNC(=O)/C=C/c1c(O)ccc2cc(-c3cccc(O)c3)ccc12 [Compound 39, (E)-3-(2-Hydroxy-6-(3-hydroxyphenyl)naphthalene-1-yl)-N-methylacrylamide] | 57.6 | 19.2 | 33.9 | 73.2 | 
2 | O=C(/C=C/c1c(O)ccc2cc(-c3cccc(O)c3)ccc12)Nc1ccccc1 [Compound 40, (E)-3-(2-Hydroxy-6-(3-hydroxyphenyl)naphthalene-1-yl)-N-phenylacrylamide] | 60.4 | < 10 | 28.1 | 76.9 | 
3 | CNC(=O)c1c(O)ccc2cc(-c3cccc(O)c3)ccc12 [Compound 41, 2-Hydroxy-6-(3-hydroxyphenyl)-N-methyl-1-naphthamide] | 76.3 | 21.8 | < 10 | 21.6 | 
4 | O=C(Nc1ccccc1)c1c(O)ccc2cc(-c3cccc(O)c3)ccc12 [Compound 42, 2-Hydroxy-6-(3-hydroxyphenyl)-N-phenyl-1-naphthamide] | 80.2 | 40 | < 10 | 16.3 | mass balance [% ± SD] [3]: 7.6 ± 0.5%; Permeability ([3]; class in words): moderate; final basolateral concentration [μM ± SD] ([3]; initial donor concentration 50 μM): 1.1 ± 0.1 µM; Papp at 180 min, 50 μM [4]: 1.5 ×10⁻⁶ cm/s
5 | O=C(Nc1cccc(O)c1)c1c(O)ccc2cc(-c3cccc(O)c3)ccc12 [Compound 43, 2-Hydroxy-N,6-bis(3-hydroxyphenyl)-1-naphthamide] | 69.9 | 20.5 | < 10 | < 10 | 
6 | Cc1nnc(NC(=O)c2c(O)ccc3cc(-c4cccc(O)c4)ccc23)s1 [Compound 48, 2-Hydroxy-6-(3-hydroxyphenyl)-N-(5-methyl-1,3,4-thiadiazol-2-yl)-1-naphthamide] | 68 |  |  | 24 | 
7 | Oc1cccc(-c2ccc3c(Br)c(O)ccc3c2)c1 [Compound 52, 1-Bromo-6-(3-hydroxyphenyl)naphthalene-2-ol] | 88.4 | 82.9 | 19 | 69 | RBA ERβ [%] [5, 8]: 0.10%; RBA ERα [%] [6, 8]: 0.081%
8 | N#Cc1cc(-c2cccc(O)c2)cc2ccc(O)cc12 [Compound 53, 7-Hydroxy-3-(3-hydroxyphenyl)-1-naphthonitrile] | 74.4 | 32.3 | 18 | 67 | 
9 | CNC(=O)CCc1c(O)ccc2cc(-c3cccc(O)c3)ccc12 [Compound 55, 3-(2-Hydroxy-6-(3-hydroxyphenyl)naphthalene-1-yl)-N-methylpropanamide] | 80 | < 10 | < 10 | 35.8 | 
10 | Oc1cccc(-c2ccc3c(-c4ccccc4)c(O)ccc3c2)c1 [Compound 56, 6-(3-Hydroxyphenyl)-1-phenyl-2-naphthol] | 89.4 | 76.2 | 22.1 | 77.2 | RBA ERβ [%] [5, 8]: 0.044%; T1/2z [7]: 5.9 h; tz [7]: 24.0 h; AUC(0-t) [7]: 11700 ng·h/mL; Tmax [7]: 4 h; AUC(0-inf) [7]: 12700 ng·h/mL; RBA ERα [%] [6, 8]: 0.055%
11 | Oc1cccc(-c2ccc3c(-c4cccc(O)c4)c(O)ccc3c2)c1 [Compound 57, 1,6-Bis(3-hydroxyphenyl)naphthalene-2-ol] | 92.6 | 82.9 |  |  | RBA ERβ [%] [5, 8]: 0.020%; T1/2z [7]: 0.9 h; tz [7]: 10.0 h; AUC(0-t) [7]: 10700 ng·h/mL; Tmax [7]: 6 h; AUC(0-inf) [7]: 10700 ng·h/mL; inhibition at 0.1 µM [2]: < 10%; inhibition at 1 µM [2]: 40.1%; RBA ERα [%] [6, 8]: 0.0013%
12 | Oc1cccc(-c2ccc3c(-c4ccoc4)c(O)ccc3c2)c1 [Compound 58, 1-(Furan-3-yl)-6-(3-hydroxyphenyl)naphthalene-2-ol] |  |  | 60.6 | 92.3 | inhibition at 1 µM [1]: 89.1%; inhibition at 0.1 µM [1]: 83%; RBA ERβ [%] [5]: 0.024%; RBA ERα [%] [6]: 0.022%
13 | Oc1cccc(-c2ccc3c(-c4ccncc4)c(O)ccc3c2)c1 [Compound 60, 6-(3-Hydroxyphenyl)-1-(pyridin-4-yl)naphthalene-2-ol] |  |  | 12.2 | 48.5 | inhibition at 1 µM [1]: 85.9%; inhibition at 0.1 µM [1]: 74.4%; RBA ERβ [%] [5, 8]: 0.003%; RBA ERα [%] [6, 8]: 0.0068%
14 | Oc1cccc(-c2ccc3c(-c4cncnc4)c(O)ccc3c2)c1 [Compound 61, 6-(3-Hydroxyphenyl)-1-(pyrimidin-5-yl)naphthalene-2-ol] | 22.1 | < 10 | 15.5 | 51.7 | 
15 | O=C(O)c1cccc(-c2c(O)ccc3cc(-c4cccc(O)c4)ccc23)c1 [Compound 63, 3-(2-Hydroxy-6-(3-hydroxyphenyl)naphthalene-1-yl)benzoic acid] | 80 | 44.7 | < 10 | 34.2 | 
16 | CS(=O)(=O)Nc1cccc(-c2c(O)ccc3cc(-c4cccc(O)c4)ccc23)c1 [Compound 64, N-(3-(2-Hydroxy-6-(3-hydroxyphenyl)naphthalene-1-yl)phenyl)methanesulfonamide] |  |  | 31.1 | 71.3 | inhibition at 1 µM [1]: 90.8%; inhibition at 0.1 µM [1]: 88.1%; RBA ERβ [%] [5]: 0.007%; T1/2z [7]: 1.1 h; tz [7]: 10.0 h; AUC(0-t) [7]: 1330 ng·h/mL; Tmax [7]: 2 h; AUC(0-inf) [7]: 1330 ng·h/mL; RBA ERα [%] [6]: 0.012%
17 | Oc1cccc(-c2ccc3c(-c4ccc(N5CCOCC5)cc4)c(O)ccc3c2)c1 [Compound 65, 6-(3-Hydroxyphenyl)-1-(4-morpholinophenyl)naphthalene-2-ol] | 64.9 | 31.9 | 12.4 | 31.9 | 
18 | CC(=O)Nc1cccc(-c2c(O)ccc3cc(-c4cccc(O)c4)ccc23)c1 [Compound 66, N-(3-(2-Hydroxy-6-(3-hydroxyphenyl)naphthalene-1-yl)phenyl)acetamide] | 81.5 | 35.1 | 24.1 | 63.6 | 
19 | O=C(O)CCC(=O)Nc1ccc(-c2c(O)ccc3cc(-c4cccc(O)c4)ccc23)cc1 [Compound 67, 4-(4-(2-Hydroxy-6-(3-hydroxyphenyl)naphthalene-1-yl)phenylamino)-4-oxobutanoic acid] | 62.3 | < 10 | 24.2 | 68 | 
20 | O=S(=O)(Nc1nccs1)c1cccc(-c2c(O)ccc3cc(-c4cccc(O)c4)ccc23)c1 [Compound 69, 3-(2-Hydroxy-6-(3-hydroxyphenyl)naphthalene-1-yl)-N-(thiazol-2-yl)-benzenesulfonamide] | 96.3 | 87 | 24 | 71 | RBA ERβ [%] [5, 8]: 0.010%; RBA ERα [%] [6, 8]: 0.015%

— patent publication US8546392B2, “17Beta-hydroxysteroid dehydrogenase type 1 inhibitors for the treatment of hormone-related diseases” (Universitaet des Saarlandes, priority 2008, dated 2013)
